Here are results for 25 compounds from patent US20070135499A1 (Aerie Pharmaceuticals, Inc., priority 2005, published 2007).

Bounds are passed on as bounds.

The experiment concerns the target T1, hGRK-2 (Homo sapiens, UniProt P25098).
T1 sequence (P25098 1-689): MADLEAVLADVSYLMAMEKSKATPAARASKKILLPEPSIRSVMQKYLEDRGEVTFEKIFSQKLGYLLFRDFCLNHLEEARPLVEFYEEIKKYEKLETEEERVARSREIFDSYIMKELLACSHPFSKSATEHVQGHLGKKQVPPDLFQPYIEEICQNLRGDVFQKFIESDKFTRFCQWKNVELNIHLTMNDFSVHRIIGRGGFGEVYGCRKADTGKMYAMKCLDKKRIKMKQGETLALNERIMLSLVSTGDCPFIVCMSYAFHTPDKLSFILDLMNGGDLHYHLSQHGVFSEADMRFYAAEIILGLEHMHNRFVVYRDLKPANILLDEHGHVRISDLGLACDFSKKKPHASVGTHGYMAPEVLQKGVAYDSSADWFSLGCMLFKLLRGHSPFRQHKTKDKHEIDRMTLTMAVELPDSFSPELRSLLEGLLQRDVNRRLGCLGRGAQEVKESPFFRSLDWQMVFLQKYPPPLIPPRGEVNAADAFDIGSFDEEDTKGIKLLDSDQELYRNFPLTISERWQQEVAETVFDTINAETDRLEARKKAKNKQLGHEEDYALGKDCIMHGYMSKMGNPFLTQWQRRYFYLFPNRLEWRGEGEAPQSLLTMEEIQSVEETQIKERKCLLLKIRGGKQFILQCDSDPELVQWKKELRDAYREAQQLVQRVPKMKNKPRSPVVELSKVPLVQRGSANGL
The experiment can be described thus: luciferase-based (Kinase-Glo) biochemical kinase inhibition assay, hGRK-2. Particulars: luciferase assay, casein substrate, 10 μM ATP; read-out: GRK-2 inhibition, Ki class. The method, then: The inhibition of G-protein-coupled receptor kinases including hGRK-2 was determined for the hydrazide compounds using a biochemical assay. The inhibition of GRK-3, GRK-5 and GRK-6 was also determined using the same assay for some of the hydrazide derivatives.
The protein kinase inhibition was determined using a biochemical assay utilizing the light emission of a luciferase reaction. The luciferase-based assay operates on the following reaction principles: [drawing 10]
An inhibitor of GRK-2 will increase in the amount of ATP in solution, as shown. Thus, an inhibitor of GRK-2 will drive the luciferase reaction to the right, resulting in more light emitted. The amount of light emitted is proportional to the inhibition resulting from the GRK-2 inhibitor. The luciferase-based assay was also used to test some of the hydrazides for the inhibition properties towards other kinases.
The test procedure was as follows:
• 50 mM HEPES, pH 7.5 • 10 mM MgCl2 • 100 μM activated sodium orthovanadate • 0.01% CHAPS • 0.1% BSA • 1 mM DTT (added fresh daily) 10× Assay Buffer Stock: • 500 mM HEPES, pH 7.5 • 100 mM MgCl2 • 1 mM activated sodium orthovanadate • 0.1% CHAPS • 1% BSA (leave out for 10× compound dilution buffer) Final Assay Conditions: • 50 μM test compound • 20 μM casein • 10 μM ATP • 50 nM hGRK2 • 4.5% DMSO • 90-120 minute incubation
Stopped by addition of 30 μl 3×-diluted Kinase-Glo reagent containing 0.01% trypan blue. Counted on FUSION plate reader.
Compound Dilution and Transfer
Prepare sufficient buffer containing 40% DMSO to add 20 μl/well to the number of plates being assayed. This buffer should not contain BSA because it will precipitate with addition of 40% DMSO. (EXAMPLE: To make 3000 ml compound dilution buffer: 1200 ml DMSO, 180 ml 10× compound dilution buffer, 1615 ml ultrapure water, 3 ml 1M DTT.).
Using Multidrop, add 20 μl of compound dilution buffer to all wells of the 384-well daughter plate (add 1 μl DMSO to control wells). This will result in a daughter plate which contains 21 μl of ˜500 μM test compound.
Using the PlateTrak, transfer 5 μl of the test compounds to a 384-well, non-binding, white microtiter plate.
Prepare sufficient volume of buffer (with BSA and 1 mM DTT) containing 125 nM GRK2 and 25 μM ATP. (Example: To 219 ml of buffer was added 550 μl 10 mM ATP and 350 μl 79 μM GRK2).
Using Multidrop, add 20 μl of GRK2/ATP mixture to all wells of the microtiter plate.
Prepare sufficient volume of buffer (with BSA and 1 mM DTT) containing 40 μM casein. (EXAMPLE: To 211 ml buffer add 8.8 ml 1 mM casein)
Using Multidrop, add 25 μl to columns 1 through 23 of the microtiter plate. Add 25 μl of complete buffer to column 24 (blanks).
Mix reaction gently by tapping (Multidrop addition of casein does a decent job of mixing), stack plates and incubate at room temperature for between 90 and 120 minutes. Assay progression can be tracked in a separate plate if desired. Target 20-30% ATP consumption. Try to avoid exceeding 40% consumption as kinetics might become non-linear due to substrate (ATP) depletion.
Addition of Kinase-Glo Reagents
The Kinase-Glo reagent can be diluted 3-fold with no loss of data quality in this assay. Additionally, since the library contains many colored compounds which will quench the light emitted from the well resulting in a false negative (kinase inhibitors result in less ATP consumption thus more light emitted), the entire reaction is subject to intentional quench to override this effect. This intentional quench is accomplished by the addition of 0.01% trypan blue to the Kinase-Glo reagents. (EXAMPLE: 100 ml 1× Kinase-Glo reagents (prepared according to product insert), 200 ml assay buffer, 7.5 ml 0.4% trypan blue.
Using Multidrop, add 30 μl to all wells of the assay plate.
Count on FUSION plate reader in luminescence mode.
Regarding `O=C(CNc1cccc(Oc2ccc(OC(F)(F)F)cc2)c1)NN=Cc1ccncc1` (mixture of isomers) [Example 77, [3-(4-Trifluoromethoxy-phenoxy)-phenylamino]-acetic acid [1-pyridin-4-yl-meth-(E/Z)-ylidene]-hydrazide], the Ki (in general, the equilibrium dissociation constant of an inhibitor or competing ligand from its target) was 100 to 1000 nM. For the compound `COc1ccc(Oc2cccc(NCC(=O)NN=Cc3ccncc3)c2)cc1` (mixture of isomers) [Example 81], the Ki lay in the range of 10 to 100 nM. Turning to `O=C(CNc1ccccc1)N/N=C/c1c(Cl)cncc1Cl` [Example 2, Phenylamino-acetic acid [1-(3,5-dichloro-pyridin-4-yl)-meth-(E)-ylidene]-hydrazide], the Ki was 100 to 1000 nM. As to `N#Cc1cccc(NCC(=O)N/N=C/c2c(Cl)cncc2Cl)c1` [Example 3, (3-Cyano-phenylamino)-acetic acid [1-(3,5-dichloro-pyridin-4-yl)-meth-(E)-ylidene]-hydrazide], the Ki lay within 1000 to 10000 nM. For the compound `O=C(CNc1cccc(Br)c1)N/N=C/c1c(Cl)cncc1Cl` [Example 6, (3-Bromo-phenylamino)-acetic acid [1-(3,5-dichloro-pyridin-4-yl)-meth-(E)-ylidene]-hydrazide], the Ki lay in the range of 1000 to 10000 nM.

As for `O=C(CNc1cccc([N+](=O)[O-])c1)N/N=C/c1c(Cl)cncc1Cl` [Example 7, (3-Nitro-phenylamino)-acetic acid [1-(3,5-dichloro-pyridin-4-yl)-meth-(E)-ylidene]-hydrazide], the Ki is 1000 to 10000 nM.

Take `Cc1cccc(NCC(=O)N/N=C/c2c(Cl)cncc2Cl)c1` [Example 8, m-Tolylamino-acetic acid [1-(3,5-dichloro-pyridin-4-yl)-meth-(E)-ylidene]-hydrazide]: the Ki was in the range of 1000 to 10000 nM.

For `O=C(CNc1cccc(I)c1)N/N=C/c1c(Cl)cncc1Cl` [Example 11, (3-Iodo-phenylamino)-acetic acid [1-(3,5-dichloro-pyridin-4-yl)-meth-(E)-ylidene]-hydrazide], the Ki lay within 1000 to 10000 nM. On to `O=C(CNc1cccc(C(F)(F)F)c1)N/N=C/c1c(Cl)cncc1Cl` [Example 12, (3-Trifluoromethyl-phenylamino)-acetic acid [1-(3,5-dichloro-pyridin-4-yl)-meth-(E)-ylidene]-hydrazide], for which the Ki was above 10000 nM. In the case of `O=C(CNc1ccc(F)cc1)N/N=C/c1c(Cl)cncc1Cl` [Example 14, (4-Fluoro-phenylamino)-acetic acid [1-(3,5-dichloro-pyridin-4-yl)-meth-(E)-ylidene]-hydrazide], the inhibitory constant (Ki) was 1000 to 10000 nM. Consider `CC(C)c1cccc(NCC(=O)N/N=C/c2c(Cl)cncc2Cl)c1` [Example 16, (3-Isopropyl-phenylamino)-acetic acid [1-(3,5-dichloro-pyridin-4-yl)-meth-(E)-ylidene]-hydrazide], for which the Ki is above 10000 nM. In the case of `Cc1ccc(NCC(=O)N/N=C/c2c(Cl)cncc2Cl)cc1` [Example 17, p-Tolylamino-acetic acid [1-(3,5-dichloro-pyridin-4-yl)-meth-(E)-ylidene]-hydrazide], the Ki was 1000 to 10000 nM. In the case of `O=C(CNc1ccc(Cl)cc1)N/N=C/c1c(Cl)cncc1Cl` [Example 18, (4-Chloro-phenylamino)-acetic acid [1-(3,5-dichloro-pyridin-4-yl)-meth-(E)-ylidene]-hydrazide] it was 1000 to 10000 nM; in that of `CC(C)Oc1cccc(NCC(=O)N/N=C/c2c(Cl)cncc2Cl)c1` [Example 19, (3-Isopropoxy-phenylamino)-acetic acid [1-(3,5-dichloro-pyridin-4-yl)-meth-(E)-ylidene]-hydrazide], 1000 to 10000 nM. The result for `CS(=O)(=O)c1cccc(NCC(=O)N/N=C/c2c(Cl)cncc2Cl)c1` [Example 23, (3-Methanesulfonyl-phenylamino)-acetic acid [1-(3,5-dichloro-pyridin-4-yl)-meth-(E)-ylidene]-hydrazide] reads 1000 to 10000 nM. In the case of `CS(=O)(=O)Nc1cccc(NCC(=O)N/N=C/c2c(Cl)cncc2Cl)c1` [Example 24] it was 1000 to 10000 nM; in that of `Cc1ccccc1NCC(=O)N/N=C/c1c(Cl)cncc1Cl` [Example 25, o-Tolylamino-acetic acid [1-(3,5-dichloro-pyridin-4-yl)-meth-(E)-ylidene]-hydrazide], 1000 to 10000 nM; in that of `CCc1ccccc1NCC(=O)N/N=C/c1c(Cl)cncc1Cl` [Example 26, (2-Ethyl-phenylamino)-acetic acid [1-(3,5-dichloro-pyridin-4-yl)-ylidene]-hydrazide], 1000 to 10000 nM. As for `CC(=O)Nc1cccc(NCC(=O)N/N=C/c2c(Cl)cncc2Cl)c1` [Example 27, N-(3-{[1-(3,5-Dichloro-pyridin-4-yl)-meth-(E)-ylidene-hydrazinocarbonylmethyl]-amino}-phenyl)-acetamide], the Ki lay within 1000 to 10000 nM. Take `O=C(CNc1ccccc1Br)N/N=C/c1c(Cl)cncc1Cl` [Example 29, (2-Bromo-phenylamino)-acetic acid [1-(3,5-dichloro-pyridin-4-yl)-meth-(E)-ylidene]-hydrazide]: the Ki is above 10000 nM.

Regarding `Cc1ccccc1Oc1ccccc1NCC(=O)N/N=C/c1c(Cl)cncc1Cl` [Example 30, (^2-o-Tolyloxy-phenylamino)-acetic acid [1-(3,5-dichloro-pyridin-4-yl)-meth-(E)-ylidene]-hydrazide], the Ki is above 10000 nM. In the case of `O=C(CNc1cccc(-n2cncn2)c1)N/N=C/c1c(Cl)cncc1Cl` [Example 31, (3-[1,2,4]Triazol-1-yl-phenylamino)-acetic acid [1-(3,5-dichloro-pyridin-4-yl)-meth-(E)-ylidene]-hydrazide] it was above 10000 nM; in that of `O=C(CNc1cccc(OCCN2CCOCC2)c1)N/N=C/c1c(Cl)cncc1Cl` [Example 32, [3-(2-Morpholin-4-yl-ethoxy)-phenylamino]-acetic acid [1-(3,5-dichloro-pyridin-4-yl)-meth-(E)-ylidene]-hydrazide], 1000 to 10000 nM. The result for `O=C(CNc1cccc(C(=O)NCCN2CCOCC2)c1)N/N=C/c1c(Cl)cncc1Cl` [Example 33, 3-{[1-(3,5-Dichloro-pyridin-4-yl)-meth-(E)-ylidene-hydrazinocarbonylmethyl]-amino}-N-(2-morpholin-4-yl-ethyl)-benzamide] reads 10 to 100 nM. The result for `O=C(CNc1cccc(-n2cccn2)c1)N/N=C/c1c(Cl)cncc1Cl` [Example 34] reads above 10000 nM.
